Laboratory results reported in patent EP0428104A2, “Treatment of multi-drug resistant tumors with pyridyloxazole-2-ones” (MERRELL DOW PHARMACEUTICALS INC., priority 1989, dated 1991).

System: CHO^R cells
Experiment: Reversal of multidrug resistance: cell growth in vinblastine resistant tumor cell line, cell number by Coulter counter
Type: cell-based
Conditions: 72 hr
Method: CHO^R cells were plated at a density of 1X10⁵/35mm dish and were allowed to grow overnight at 37°C in a CO₂ incubator. The medium was replaced with medium containing the compounds and vinblastine (0.2 µg/ml). The cells were allowed to grow for further 72 hr and the cell number was determined by Coulter counter after trypsinization. […]

Row | Compound | % Inhibition of Cell Growth Compound + VLB (compound 0.1 µg/ml plus vinblastine 0.2 µg/ml) | inhibition at 0.1 µg/mL (compound 0.1 µg/ml, without VLB, read-out: % Inhibition of Cell Growth Compound Only) | % Inhibition of Cell Growth Compound + VLB (compound 1 µg/ml plus vinblastine 0.2 µg/ml) | inhibition at 1 µg/mL (compound 1 µg/ml, without VLB, read-out: % Inhibition of Cell Growth Compound Only) | % Inhibition of Cell Growth Compound + VLB (compound 10 µg/ml plus vinblastine 0.2 µg/ml) | inhibition at 10 µg/mL (compound 10 µg/ml, without VLB, read-out: % Inhibition of Cell Growth Compound Only) | effect on cell growth (VLB alone at 0.2 µg/ml)
1 | CCCc1[nH]c(=O)oc1-c1ccncc1 [4-PROPYL-5(4-PYRIDINYL)-2(3H)-OXAZOLONE, 4-propyl-5-(4-pyridinyl)-2(3H)-oxazolone] | 6% | 0% | 22% | 0% | 82% | 55% | 
2 | CC[C@]1(O)C[C@@H]2CN(CCc3c([nH]c4ccccc34)[C@@](C(=O)OC)(c3cc4c(cc3OC)N(C)[C@H]3[C@@](O)(C(=O)OC)[C@H](OC(C)=O)[C@]5(CC)C=CCN6CC[C@]43[C@@H]65)C2)C1 [VLB, vinblastine, reference compound] |  |  |  |  |  |  | did not have any effect on cell growth
